The experiment addresses T1, BRPF1 bromodomain (Homo sapiens, UniProt P55201).
T1 sequence (P55201 629-742): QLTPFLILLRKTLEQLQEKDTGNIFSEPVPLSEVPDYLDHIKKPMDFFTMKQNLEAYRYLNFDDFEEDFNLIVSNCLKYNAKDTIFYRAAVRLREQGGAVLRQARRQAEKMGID
As to the kind of experiment: biochemical. The experiment is classed as binding. To be noted: SD.

Ends that are not written are not given here.

By Kd is commonly meant the constant that tells how readily two partners part at equilibrium. The low end stands for higher affinity, the high end for lower affinity. LGKGGAK(Ac)RHRK [H4K16ac (10–20)]: the Kd was 518 ± 92.1 µM.

The values above are taken from article PMC7861561 (Current Research in Structural Biology, 2020).
